Results on two molecules are retold here after patent US9115122B2, “Non-ATP dependent inhibitors of extracellular signal-regulated kinase (ERK)” (UNIVERSITY OF MARYLAND, BALTIMORE, priority 2012, dated 2015).

pIC50: −log10 of the molar value.

What all share (format): cell-based
In data set [1] the test system is A375 melanoma cells. As to the kind of experiment: Cell proliferation WST-1 assay, single dose (Example 4). Conditions: 100 μM, 48 hours. In outline:
(§1)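 Tetrazolium (WST-1) read-out of proliferation, values relative to DMSO-only wells; cells treated for 48 h after 16-20 h recovery.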

A further data set has as its system HL-60 leukemic cells. The data set is described as above. Particulars: 100 μM, 48 hours. In outline: as §1
The subject of data set [2] is HeLa cervical carcinoma cells. The description is as above. Particulars: 100 μM, 48 hours. The method in brief:
as §1

In data set [3] the test system is Jurkat T-cell leukemia cells. Described as above. Particulars: 100 μM, 48 hours. In outline: as §1
The subject of a further data set is RPMI-7951 melanoma cells. Described as above. Conditions: 100 μM, 48 hours. In outline: as §1
The test system of data set [4] is SK-MEL-28 melanoma cells. Described as above. Particulars: 100 μM, 48 hours. The method in brief:
as §1

Data set [5] deals with A375 melanoma cells. Kind of data set: Dose-response growth inhibition (GI50) of select compounds. Particulars: Homo sapiens, A-375, 48 h, two days. The procedure:
(§2) An example of the dose response curve for compound 30h and the BRaf inhibitor PLX4032 for inhibiting the growth of melanoma cell lines is shown in FIG. 14. […] A summary of GI50 values for select compounds along with comparisons to know ERK pathway inhibitors in various cell lines is shown in Table 13. […] First, thiazolidinedione compounds have been identified to be selective inhibitors of cancer cell lines containing activated ERK signaling. Second, changes in the 4-ethoxyphenyl component of the parent compound 76 improve selectivity and potency for inhibiting melanoma cell growth. Third, compound 30h is a potent inhibitor of melanoma cell lines that have become resistant to the clinically relevant BRaf and MEK inhibitors. […] Lastly, 30h is as potent as the ATP-competitive pyrazolopyridazinamine ERK inhibitor (FR180204) in preventing melanoma cell proliferation and provides an alternative non-ATP-dependent approach to target cancer cells that are dependent on active ERK signaling.
(§3) Melanoma cells (A375, SK-MEL-28, and RPMI7951) were seeded at a density of 5,000 per well in 96-well plate. After overnight incubation, cells were treated with varying doses of PLX4032 (A) or 31h (B) for two days. Cell viability was determined by the addition of Cell Titer-Blue Reagent (20 μL/well) followed by 2 hours of incubation at 37° C. after which fluorescence was recorded (555/585 nm). Cell viability was expressed as percentage of vehicle control and data represent the average of three individual experiments.

For data set [6], the system named is RPMI7951 melanoma cells. The description is as above. Particulars: Homo sapiens, RPMI-7951, 48 h, two days. On the procedure:
as §2, §3

For data set [7], the system named is SK-MEL-28 melanoma cells. The description is as above. Conditions: Homo sapiens, SK-MEL-28, 48 h, two days. The procedure:
as §2, §3

A further data set concerns HeLa cells. Described as above. Particulars: Homo sapiens, HeLa.
The test system of the next data set is Jurkat cells. The data set is described as above. Conditions: Homo sapiens, Jurkat.
The test system of data set [8] is activator protein-1 (AP-1) promoter. As to the kind of experiment: AP-1 promoter luciferase assay, HeLa cells (Example 4). Particulars: Homo sapiens, EGF 25 ng/mL, read-out: estimated IC50 AP-1 promoter activity. On the procedure: (§4) HeLa cells were seeded in 24-well plates (4×10^4 cells/well) and incubated 18 hours prior to achieve ˜60-70% confluent. Cells were transfected with activator protein-1 (pAP1(PMA)-TA-Luc; Clontech) or the serum response element (pGL4.33-SRE; Promega) luciferase reporter plasmids (250 ng/well) using Lipofectamine™ (Invitrogen). After 16 hours, cells were treated with increasing amount of compounds as indicated for 20 minutes, followed by stimulation with EGF (25 ng/mL) for 4.5 hr. The luciferase activity in the cell extracts was determined with a Dual Luciferase Assay System (Promega) according to the manufacturer's instructions. Luciferase activities were monitored with a Lumat LB 9507 luminometer (Berthold Technology) and data were normalized to the amount of protein in each sample.

Data set [9] relates to serum response element (SRE). As to the kind of experiment: SRE promoter luciferase assay, HeLa cells (Example 4). Conditions: Homo sapiens, EGF 25 ng/mL, read-out: estimated IC50 SRE promoter activity. The procedure: as §4
In data set [10] the test system is A375 melanoma cells. Kind of data set: Cell proliferation, fluorescent Cell Titer Blue Assay (Example 1). Particulars: Homo sapiens, A-375; 48 hours. On the procedure: (§5) FIG. 5. Dose dependent inhibition of cancer cell proliferation in vitro by SF-3-026 and analogs. A375 (closes circles), RPM17951 (closed squares), HeLa (open circles), or Jurkat (open squares) cells were treated for 48 hours with indicated concentration of (a) SF-3-026, (b) SF-2-027, (c) SF-2-029, or (d) SF-2-030 and cell proliferation was assessed by the fluorescent Cell Titer Blue Assay. The data were reproduced in 3 separate experiments.
(§6) Cells were seeded at 25,000 cells/well in 96-well plate and cultured overnight. Cells were treated for 24 hours with various concentrations of compounds and cell viability or caspase 3/7 activity were measured according to manufacturer's instructions using the fluorescent Cell Titer Blue Assay (Promega) or luminescent Caspase 3/7 Glo Assay (Promega).
(§7) It was next determined whether inhibition of AP-1 proteins by SF-3-026 and analogs affected the proliferation of cancer cells driven by mutations that constitutively activate the ERK1/2 pathway. For these experiments, A375 and RPMI7951 melanoma cells, which have a valine to glutamate mutation on residue 600 in BRaf that causes constitutive ERK1/2 activation, were chosen. Moreover, RPMI7951 cells are resistant to clinically used BRaf inhibitors due to overexpression of MAP3K8 (the gene encoding COT/Tp12) that re-activates ERK1/2 signaling. Both melanoma cells lines were treated with varying doses of SF-3-026 or analogs and cell viability was compared to HeLa cervical carcinoma and Jurkat T-cell leukemia cells, which are p53 defective but contain no known activating mutations in the ERK1/2 pathway.

Data set [11] concerns HeLa cervical carcinoma cells. The description is as above. Conditions: Homo sapiens, 48 hours. The procedure: as §5, §6, §7
Data set [12] deals with Jurkat T-cell leukemia cells. The data set is described as above. Particulars: Homo sapiens, 48 hours. The procedure: as §5, §6, §7
Data set [13] concerns RPMI7951 melanoma cells. The description is as above. Conditions: Homo sapiens, RPMI-7951; 48 hours. On the procedure: as §5, §6, §7
The test system of the next data set is AP-1 promoter. As to the kind of experiment: AP-1 promoter luciferase assay, EGF-stimulated HeLa cells (Example 1). Conditions: Homo sapiens, EGF stimulation, 4 hours, read-out: IC50 inhibition of the AP-1 promoter. The procedure:
FIG. 4. Compound SF-3-026 and analogs inhibit SRE and AP-1 transcription factor function. (a) HeLa cells were transfected with constructs containing SRE or AP-1 promoters driving luciferase expression and then stimulated with EGF in the presence or absence of SF-3-026 for 4 hours followed by measurements of luciferase activity. Cells treated with U0126 were used as a positive inhibitor control. (b and c) HeLa cells were prepared and treated as in (a) with the indicated concentrations of SF-3-026 or analogs for 4 hours followed by the measurement of luciferase activity regulated by the SRE (b) or AP-1 (c) promoters. Data in (b and c) were normalized to EGF-only treatment and represent the mean and standard deviation from three independent experiments. (d) Compound SF-3-026 and analogs inhibit MEK1-induced AP-1 transcription factor function. […]
HeLa cells were seeded in 24-well plates (40,000 cells/well) and incubated 18 hours to achieve ˜60-70% confluent. […] The luciferase activity in the cell extracts was determined with a Dual Luciferase Assay System (Promega) according to the manufacturer's instructions. Luciferase activities were monitored with a Lumat LB 9507 luminometer (Berthold Technology) and data were normalized to the amount of protein in each sample. […]

Data set [14] concerns MEK1-induced AP-1 promoter activity. Kind of data set: AP-1 promoter luciferase assay, HeLa cells expressing active MEK1 mutant. Conditions: Homo sapiens, 4 hours, read-out: IC50 inhibition of MEK1-induced AP-1 promoter activity. On the procedure:
FIG. 4. Compound SF-3-026 and analogs inhibit SRE and AP-1 transcription factor function. (a) HeLa cells were transfected with constructs containing SRE or AP-1 promoters driving luciferase expression and then stimulated with EGF in the presence or absence of SF-3-026 for 4 hours followed by measurements of luciferase activity. Cells treated with U0126 were used as a positive inhibitor control. (b and c) HeLa cells were prepared and treated as in (a) with the indicated concentrations of SF-3-026 or analogs for 4 hours followed by the measurement of luciferase activity regulated by the SRE (b) or AP-1 (c) promoters. Data in (b and c) were normalized to EGF-only treatment and represent the mean and standard deviation from three independent experiments. (d) Compound SF-3-026 and analogs inhibit MEK1-induced AP-1 transcription factor function. HeLa cells were transfected with the AP-1 promoter construct and a constitutively active MEK1 mutant in the presence (10 μM) or absence of the MEK1/2 inhibitor (U0126) or an ATP-competitive ERK inhibitor (ERKi) for 4 hours followed by measurements of luciferase activity. (e) Cells expressing the AP-1 promoter and an active MEK-1 construct were treated with the indicated concentrations of SF-3-026 or analogs for 4 hours followed by the measurement of luciferase activity. Data in (e) were normalized to active MEK1-only treatment and represent the mean and standard deviation from three independent experiments.
as §4, with “(40,000” for “(4×10^4”, “hours” for “hours prior”, “pre-treated” for “treated”, “varying amounts” for “increasing amount”, “hr. In some experiments, cells transfected with the pAP1(PMA)-TA-Luc promoter and a constitutively active MEK1 mutant cDNA were treated with varying amounts of compounds during the last 4 hours of incubation.” for “hr.”, “sample. […]” for “sample.”

In the case of `CC(C)COc1ccc(/C=C2\SC(=O)N(CCN)C2=O)cc1` [Compound 30g, (Z)-3-(2-aminoethyl)-5-(4-isobutoxybenzylidene)thiazolidine-2,4-dione], the “Cell Viability (% of Vehicle) A375” value with A375 melanoma cells [1] is on record as 1.8 ± 0.5 % of Vehicle. In addition, the “Cell Viability (% of Vehicle) HL-60” value in the data set with HL-60 leukemic cells was 5.0 ± 2 % of Vehicle. For the same molecule, the “Cell Viability (% of Vehicle) HeLa” value in [2] is 48 ± 3 % of Vehicle. Moreover, in [3], the “Cell Viability (% of Vehicle) Jurkat” value is recorded as 91 ± 8 % of Vehicle. Also, the “Cell Viability (% of Vehicle) RPMI-7951” value in the data set with RPMI-7951 melanoma cells is recorded as 0.3 ± 0.04 % of Vehicle. Besides, in the data set on SK-MEL-28 melanoma cells [4], the “Cell Viability (% of Vehicle) SK-MEL-28” value is recorded as 0.8 ± 0.2 % of Vehicle. Further, the 50% growth inhibitory concentration (GI50) with A375 melanoma cells [5] is 22 µM; in the data set with RPMI7951 melanoma cells [6] it was 11 µM; with SK-MEL-28 melanoma cells [7], 36 µM; in the data set with HeLa cells, roughly 100 µM; in the data set on Jurkat cells it was greater than 100 µM. In addition, the pIC50 in [8] and in [9] was no less than 5.30 throughout.

With `O=S1(=O)C=CC(OS(=O)(=O)c2ccc(-c3ccccc3)cc2)C1` (stereo not shown) [SF-3-029], the GI50 with A375 melanoma cells [10] was 7.9 µM; in data set [11], 25 µM; in data set [12], greater than 50 µM; in the data set with RPMI7951 melanoma cells [13], 4.9 µM. Besides, the pIC50 in the data set with AP-1 promoter was greater than 5.00; in data set [14], 5.00 to 5.30.
